Series [1] concerns the target Albumin (Homo sapiens, UniProt P02768). The experiment in a line: Plasma protein binding in human albumin at 1 to 20 ug/ml incubated for 30 mins. The class given is ADME. The following applies: at 1 to 20 µg/mL, dose 1-20 µg/ml, read-out: PPB (converted).
Series [2] addresses T1, Albumin (Bos taurus, UniProt P02769). The experiment in a line: Plasma protein binding in bovine serum albumin assessed as fraction bound at 5:1 ratio of compound and BSA by 1H DOSY NMR spectrophotometric analysis. The class given is ADME. The following applies: cattle, read-out: PPB (converted).
Series [3] concerns the target T1, Albumin. The experiment in a line: Plasma protein binding in bovine serum albumin assessed as fraction bound at 10:1 ratio of compound and BSA by 1H DOSY NMR spectrophotometric analysis. Type of series: ADME. The following applies: cattle, read-out: PPB (converted).
For series [4], the target named is T1, Albumin. The series can be described thus: Plasma protein binding in bovine serum albumin assessed as fraction bound at 20:1 ratio of compound and BSA by 1H DOSY NMR spectrophotometric analysis. The class given is ADME. The following applies: cattle, read-out: PPB (converted).
Series [5] is described as follows: Plasma protein binding in human plasma incubated for 18 hrs by equilibrium dialysis. A general note: In equilibrium dialysis free small molecules cross a membrane that holds back macromolecules.

T1 sequence (P02769 whole entry): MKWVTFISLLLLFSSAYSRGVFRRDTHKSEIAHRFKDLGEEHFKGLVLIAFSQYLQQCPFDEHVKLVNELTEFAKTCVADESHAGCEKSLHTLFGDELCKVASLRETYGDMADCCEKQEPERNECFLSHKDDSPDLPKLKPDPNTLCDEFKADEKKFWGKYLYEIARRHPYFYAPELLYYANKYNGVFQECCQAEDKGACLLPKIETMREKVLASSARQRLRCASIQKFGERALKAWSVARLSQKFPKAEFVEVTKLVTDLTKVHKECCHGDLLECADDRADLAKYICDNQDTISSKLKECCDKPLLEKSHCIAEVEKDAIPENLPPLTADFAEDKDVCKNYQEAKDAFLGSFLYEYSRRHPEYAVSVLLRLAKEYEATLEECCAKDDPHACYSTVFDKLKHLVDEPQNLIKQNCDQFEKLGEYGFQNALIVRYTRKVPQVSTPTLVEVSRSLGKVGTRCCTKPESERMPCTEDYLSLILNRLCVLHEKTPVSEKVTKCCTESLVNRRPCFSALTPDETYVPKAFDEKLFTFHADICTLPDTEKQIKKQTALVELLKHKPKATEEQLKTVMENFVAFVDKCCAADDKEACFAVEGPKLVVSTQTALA
Chain of Albumin (Homo sapiens, UniProt P02768) (P02768 whole entry): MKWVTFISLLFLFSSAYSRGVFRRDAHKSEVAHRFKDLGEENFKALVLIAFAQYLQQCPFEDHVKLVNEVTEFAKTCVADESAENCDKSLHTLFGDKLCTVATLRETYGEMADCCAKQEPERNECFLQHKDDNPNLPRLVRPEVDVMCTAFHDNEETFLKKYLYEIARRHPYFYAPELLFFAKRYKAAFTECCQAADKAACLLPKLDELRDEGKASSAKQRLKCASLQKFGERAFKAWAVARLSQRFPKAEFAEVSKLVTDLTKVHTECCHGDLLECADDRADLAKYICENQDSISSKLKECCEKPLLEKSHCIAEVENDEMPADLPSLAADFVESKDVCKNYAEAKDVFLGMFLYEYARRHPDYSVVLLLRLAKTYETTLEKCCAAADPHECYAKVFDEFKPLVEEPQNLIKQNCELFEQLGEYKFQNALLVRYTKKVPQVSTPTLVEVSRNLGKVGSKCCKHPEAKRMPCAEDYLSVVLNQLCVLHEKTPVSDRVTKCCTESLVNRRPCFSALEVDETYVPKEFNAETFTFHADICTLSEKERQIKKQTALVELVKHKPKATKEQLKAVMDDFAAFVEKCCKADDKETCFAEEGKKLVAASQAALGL

As for `Cn1c(=O)c2c(ncn2C)n(C)c1=O` [CAFFEINE], the fraction unbound at 0.5 h on Albumin [1] is 0.625. The fraction unbound at Albumin [2] is 0.27; on Albumin [3] it was 0.67; on Albumin [4], 0.71.

Consider `CC(=O)Oc1ccccc1C(=O)O` [ASPIRIN], for which the results for the fraction unbound at Albumin [2], at Albumin [3] and on Albumin [4] were 0.1, 0.16 and 0.48, respectively.

Consider `CC(C)NCC(O)COc1cccc2ccccc12` (configuration not stated) [PROPRANOLOL], for which the fraction unbound is 0.21 at Albumin [2], 0.41 at Albumin [3] and 0.49 at Albumin [4]. The molecule further gave a fraction unbound at 18 h in series [5] of 0.14.

Turning to `OC[C@H]1OC(O)[C@H](O)[C@@H]1O` (some centres not stated), the fraction unbound at Albumin [2] is 0.11; at Albumin [3], 0.25; on Albumin [4] it was 0.36.

Take `COc1ccc2nc([S@@+]([O-])Cc3ncc(C)c(OC)c3C)[nH]c2c1` [ESOMEPRAZOLE]: the fraction unbound on Albumin [3] was 0.02; on Albumin [4], 0.04.

Take `CN/C(=N/CCSCc1nc[nH]c1C)NC#N` [CIMETIDINE]: the results for the fraction unbound on Albumin [2], on Albumin [3] and at Albumin [4] were 0.42, 0.66 and 0.74, respectively.

For `N[C@H]1C(O)O[C@H](CO)[C@@H](O)[C@@H]1O` (some centres not stated) [GLUCOSAMINE], the values for the fraction unbound at Albumin [2], on Albumin [3] and at Albumin [4] were 0.26, 0.46 and 0.71, respectively.

These data come from ChEMBL document CHEMBL5576113, “A method for estimation of plasma protein binding using diffusion ordered NMR spectroscopy (DOSY)” (RSC Med Chem, 2024).
